The values that follow come from article PMC3312006 (2011).

The target in assay [1] is T1, histone acetyltransferase p300 (KAT3B) (Homo sapiens, UniProt Q09472).
T1 sequence (Q09472 1066-1707): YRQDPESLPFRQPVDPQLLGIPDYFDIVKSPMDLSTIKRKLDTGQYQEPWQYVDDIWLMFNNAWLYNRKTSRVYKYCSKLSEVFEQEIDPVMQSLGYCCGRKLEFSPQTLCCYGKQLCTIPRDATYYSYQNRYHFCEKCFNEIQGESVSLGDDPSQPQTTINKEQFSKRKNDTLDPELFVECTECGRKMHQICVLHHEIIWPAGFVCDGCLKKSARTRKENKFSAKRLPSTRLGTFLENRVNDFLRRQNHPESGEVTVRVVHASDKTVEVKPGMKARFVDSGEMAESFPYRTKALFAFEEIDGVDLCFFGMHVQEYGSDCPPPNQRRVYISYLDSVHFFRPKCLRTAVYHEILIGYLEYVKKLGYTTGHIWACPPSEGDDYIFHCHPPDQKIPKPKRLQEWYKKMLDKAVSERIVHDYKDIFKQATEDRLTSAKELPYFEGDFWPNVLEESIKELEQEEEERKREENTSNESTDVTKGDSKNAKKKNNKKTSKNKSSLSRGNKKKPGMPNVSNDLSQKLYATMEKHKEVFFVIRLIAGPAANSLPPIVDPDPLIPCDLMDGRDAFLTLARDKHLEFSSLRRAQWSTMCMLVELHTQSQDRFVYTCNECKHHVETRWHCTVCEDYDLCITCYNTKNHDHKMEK
Kind of assay: in vitro filter-binding HAT assay with […]acetyl-CoA and HeLa core histones. The class given is biochemical.

In assay [2] the target is T1, histone acetyltransferase p300 (KAT3B). The experiment in a line: biochemical.

Where only a bound is given, the exact number is not on record here.

The IC50 is the concentration needed to halve the response being measured. Low readings indicate greater potency, high ones weaker potency. For the compound `CCCCC[C@H](O)/C=C/[C@H]1C(=O)C=C[C@@H]1C/C=C\CCCC(=O)O` [PGJ2], the IC50 in assay [1] was greater than 2000 nM.

As to `CCCCC[C@H](O)C/C=C1/C(=O)C=C[C@@H]1C/C=C\CCCC(=O)O` [Δ^12-PGJ2], the IC50 in assay [2] is roughly 750 nM.
